Assay results from paper PMC8286840, “Identifying SARS-CoV-2 antiviral compounds by screening for small molecule inhibitors of Nsp3 papain-like protease” (Biochemical Journal, 2021).
Structures can show the parent of a compound that is named as a salt. Where two headings read alike, the source gives them in different places.

Tests used:
[1] = biological target: T1, SARS-CoV-2 PLpro (nsp3 1564–1878) (Severe acute respiratory syndrome coronavirus 2, UniProt P0DTD1); assay: biochemical; set-up: FRET-quenched peptide (Pro3) cleavage by PLpro, 10 min pre-incubation, slope over 20 min, normalised to no-compound control; conditions: low concentration screen, read-out: % of control remaining
[2] = biological target: T1, SARS-CoV-2 PLpro (nsp3 1564–1878); assay: biochemical; set-up: FRET-quenched peptide (Pro3) cleavage by PLpro, 10 min pre-incubation, slope over 20 min, normalised to no-compound control; conditions: high concentration screen, read-out: % of control remaining

CC[C@]1(O)C[C@@H]2CN(CCc3c([nH]c4ccccc34)[C@@](C(=O)OC)(c3cc4c(cc3OC)N(C)[C@H]3[C@@](O)(C(N)=O)[C@H](O)[C@]5(CC)C=CCN6CC[C@]43[C@@H]65)C2)C1 [Vindesine sulfate]
remaining activity at 1.25 µM ([1]; Well no.=2031): 102%
remaining activity at 3.75 µM ([2]; Well no.=2031): 103%

CCC12C=CCN3CC[C@@]4(c5ccc(OC)cc5N(C)[C@H]4[C@@](O)(C(=O)OC)[C@@H]1OC(C)=O)[C@@H]32 (stereo partly drawn) [Vindoline]
remaining activity at 1.25 µM ([1]; Well no.=3761): 96.2%
remaining activity at 3.75 µM ([2]; Well no.=3761): 96.6%

CC[C@]12C=CCN3CC[C@@]4(c5cc([C@@]6(C(=O)OC)C[C@@H]7C[C@@H](C(C)(F)F)CN(Cc8c6[nH]c6ccccc86)C7)c(OC)cc5N(C)[C@H]4[C@@](O)(C(=O)OC)[C@@H]1OC(C)=O)[C@@H]32 [Vinflunine Tartrate]
remaining activity at 1.25 µM ([1]; Well no.=4892): 95.2%
remaining activity at 3.75 µM ([2]; Well no.=4892): 94.7%

CCC1=C[C@@H]2CN(C1)Cc1c([nH]c3ccccc13)[C@@](C(=O)OC)(c1cc3c(cc1OC)N(C)[C@H]1[C@@](O)(C(=O)OC)[C@H](OC(C)=O)[C@]4(CC)C=CCN5CC[C@]31[C@@H]54)C2 [Vinorelbine]
remaining activity at 1.25 µM ([1]; Well no.=2029): 104%
remaining activity at 1.25 µM ([1]; Well no.=3763): 96.8%
remaining activity at 3.75 µM ([2]; Well no.=2029): 108%
remaining activity at 3.75 µM ([2]; Well no.=3763): 100%

CCOC(=O)C1=C[C@]2(CC)CCCN3CCc4c(n1c1ccccc41)[C@@H]32 [Vinpocetine]
remaining activity at 1.25 µM ([1]; Well no.=1432): 99%
remaining activity at 1.25 µM ([1]; Well no.=2158): 98.7%
remaining activity at 1.25 µM ([1]; Well no.=3228): 103%
remaining activity at 3.75 µM ([2]; Well no.=1432): 102%
remaining activity at 3.75 µM ([2]; Well no.=3228): 108%

Cc1cc(Cn2nnc3c(-c4ccco4)nc(N)nc32)ccc1N [Vipadenant]
remaining activity at 1.25 µM ([1]; Well no.=8603): 95.2%
remaining activity at 3.75 µM ([2]; Well no.=8603): 92.7%

O=C(O)CC[C@H](NC(=O)N[C@@H](CCCCNC(=O)[C@H](Cc1ccc2ccccc2c1)NC(=O)[C@H]1CC[C@H](CNC(=O)CN2CCN(CC(=O)O)CCN(CC(=O)O)CCN(CC(=O)O)CC2)CC1)C(=O)O)C(=O)O [Vipivotide tetraxetan]
remaining activity at 1.25 µM ([1]; Well no.=7834): 103%
remaining activity at 3.75 µM ([2]; Well no.=7834): 104%

COc1c2ccoc2cc2oc(C)cc(=O)c12 [Visnagin]
remaining activity at 1.25 µM ([1]; Well no.=3689): 99.6%
remaining activity at 3.75 µM ([2]; Well no.=3689): 101%

CC(=O)OC/C=C(C)/C=C/C=C(C)/C=C/C1=C(C)CCCC1(C)C [Vitamin A acetate]
remaining activity at 1.25 µM ([1]; Well no.=1700): 101%
remaining activity at 3.75 µM ([2]; Well no.=1700): 97.8%

C=C1CC[C@H](O)C/C1=C/C=C1\CCC[C@]2(C)[C@@H]([C@H](C)/C=C/[C@H](C)C(C)C)CC[C@@H]12 [Vitamin D2 (Ergocalciferol)]
remaining activity at 1.25 µM ([1]; Well no.=4684): 99.3%
remaining activity at 3.75 µM ([2]; Well no.=4684): 100%

C=C1CC[C@H](O)C/C1=C/C=C1\CCC[C@]2(C)[C@@H]([C@H](C)/C=C/[C@H](C)C(C)C)CC[C@@H]12 [Vitamin D2]
remaining activity at 1.25 µM ([1]; Well no.=7411): 107%
remaining activity at 3.75 µM ([2]; Well no.=7411): 106%

C=C1CC[C@H](O)C/C1=C/C=C1\CCC[C@]2(C)[C@@H]([C@H](C)CCCC(C)C)CC[C@@H]12 [Vitamin D3 (Cholecalciferol)]
remaining activity at 1.25 µM ([1]; Well no.=4702): 99.7%
remaining activity at 3.75 µM ([2]; Well no.=4702): 100%

C[C@@H]1O[C@@H](O[C@@H]2[C@@H](O)[C@H](O)[C@@H](CO)O[C@H]2c2c(O)cc(O)c3c(=O)cc(-c4ccc(O)cc4)oc23)[C@H](O)[C@H](O)[C@H]1O [Vitexin-2-O-rhamnoside]
remaining activity at 1.25 µM ([1]; Well no.=3405): 91.6%
remaining activity at 3.75 µM ([2]; Well no.=3405): 80.4%

O=c1cc(-c2ccc(O)cc2)oc2c([C@@H]3O[C@H](CO)[C@@H](O)[C@H](O)[C@H]3O)c(O)cc(O)c12 [Vitexin]
remaining activity at 1.25 µM ([1]; Well no.=3396): 95.4%
remaining activity at 3.75 µM ([2]; Well no.=3396): 97.6%

OCC(CO)N[C@H]1C[C@](O)(CO)[C@@H](O)[C@H](O)[C@H]1O [Voglibose]
remaining activity at 1.25 µM ([1]; Well no.=8298): 90.6%
remaining activity at 3.75 µM ([2]; Well no.=8298): 93.5%

CCOC(=O)N[C@@H]1CC[C@@H]2[C@@H](C1)C[C@H]1C(=O)O[C@H](C)[C@H]1[C@H]2/C=C/c1ccc(-c2cccc(F)c2)cn1 [Vorapaxar]
remaining activity at 1.25 µM ([1]; Well no.=7567): 97.6%
remaining activity at 3.75 µM ([2]; Well no.=7567): 89.4%

C[C@@H](c1ncncc1F)[C@](O)(Cn1cncn1)c1ccc(F)cc1F [Voriconazole]
remaining activity at 1.25 µM ([1]; Well no.=4857): 101%
remaining activity at 3.75 µM ([2]; Well no.=4857): 103%

O=C(CCCCCCC(=O)Nc1ccccc1)NO [Vorinostat (SAHA)]
remaining activity at 1.25 µM ([1]; Well no.=1866): 87.6%
remaining activity at 3.75 µM ([2]; Well no.=1866): 82.8%

Cc1ccc(Sc2ccccc2N2CCNCC2)c(C)c1 [Vortioxetine (hydrobromide)]
remaining activity at 1.25 µM ([1]; Well no.=7384): 98.6%
remaining activity at 3.75 µM ([2]; Well no.=7384): 98.7%

Cc1ccc(Sc2ccccc2N2CCNCC2)c(C)c1 [Vortioxetine]
remaining activity at 1.25 µM ([1]; Well no.=6269): 102%
remaining activity at 3.75 µM ([2]; Well no.=6269): 102%

COC(=O)/C(=C1/OC(=O)C(c2ccccc2)=C1O)c1ccccc1 [Vulpinic acid]
remaining activity at 1.25 µM ([1]; Well no.=3513): 102%
remaining activity at 3.75 µM ([2]; Well no.=3513): 104%

COc1ccccc1N1CCN(CCN(C(=O)C2CCCCC2)c2ccccn2)CC1 [WAY-100635 (maleate salt)]
remaining activity at 1.25 µM ([1]; Well no.=7000): 99.7%
remaining activity at 3.75 µM ([2]; Well no.=7000): 99.5%

COc1ccccc1N1CCN(CCN(C(=O)C2CCCCC2)c2ccccn2)CC1 [WAY-100635 maleate]
remaining activity at 1.25 µM ([1]; Well no.=1292): 107%
remaining activity at 3.75 µM ([2]; Well no.=1292): 107%

CN(C)CCn1cc(S(=O)(=O)c2cccc(F)c2)c2cccnc21 [WAY-208466 dihydrochloride]
remaining activity at 1.25 µM ([1]; Well no.=6065): 98.6%
remaining activity at 3.75 µM ([2]; Well no.=6065): 97.1%

CC(C)OC(=O)C1=CN(C(=O)c2ccc(F)c(F)c2)CC(C)(C)c2c1[nH]c1ccccc21 [WAY-362450]
remaining activity at 1.25 µM ([1]; Well no.=4928): 95.1%
remaining activity at 3.75 µM ([2]; Well no.=4928): 96.2%

COc1cccc(OC)c1OCCNCC1COc2ccccc2O1 (stereo not drawn) [WB-4101 hydrochloride]
remaining activity at 1.25 µM ([1]; Well no.=443): 96%
remaining activity at 3.75 µM ([2]; Well no.=443): 99.1%

Cc1ccc(-c2nn(C(C)(C)CNC(=O)c3ccncc3)c3ncnc(N)c23)cc1 [WEHI-345]
remaining activity at 1.25 µM ([1]; Well no.=6690): 96.4%
remaining activity at 3.75 µM ([2]; Well no.=6690): 96.2%

COc1cc2ncnc(Nc3ccc(O)cc3)c2cc1OC [WHI-P131]
remaining activity at 1.25 µM ([1]; Well no.=1338): 93.8%
remaining activity at 3.75 µM ([2]; Well no.=1338): 97.1%

COc1cc2ncnc(Nc3cccc(O)c3)c2cc1OC [WHI-P180, Hydrochloride]
remaining activity at 1.25 µM ([1]; Well no.=2679): 96%
remaining activity at 3.75 µM ([2]; Well no.=2679): 96.7%

C#C[C@]1(O)CC[C@H]2[C@@H]3CCC4=Cc5nc6nc7ccccc7n6cc5C[C@]4(C)[C@H]3CC[C@@]21C [WIN 62,577]
remaining activity at 1.25 µM ([1]; Well no.=1196): 99.9%
remaining activity at 3.75 µM ([2]; Well no.=1196): 97.4%

C[C@H](NC(=O)/C(C#N)=C/c1cccc(Br)n1)c1ccccc1 [WP1066]
remaining activity at 1.25 µM ([1]; Well no.=4779): 103%
remaining activity at 3.75 µM ([2]; Well no.=4779): 99%

CCC[C@H](NC(=O)/C(C#N)=C/c1cccc(Br)n1)c1ccccc1 [WP1130]
remaining activity at 1.25 µM ([1]; Well no.=4862): 95.4%
remaining activity at 3.75 µM ([2]; Well no.=4862): 98.1%
